Test results published in patent US9247741B2, “Use of macrocyclic picolinamides as fungicides” (DOW AGROSCIENCES LLC, priority 2013, dated 2016).

Key:
Alternaria solani = assay: Tomato early blight (ALTESO) disease control; type: in vivo; conditions: 24 h, 1 Day Protectant, read-out: ALTESO disease control rating
Protocol: Technical grades of materials were dissolved in acetone, which were then mixed with nine volumes of water containing 110 ppm Triton X-100. The fungicide solutions were applied onto wheat seedlings using an automated booth sprayer to run-off. All sprayed plants were allowed to air dry prior to further handling. All fungicides were evaluated using the aforementioned method for their activity vs. all target diseases. Wheat leaf blotch and brown rust activity were also evaluated using track spray applications, in which case the fungicides were formulated as EC formulations, containing 0.1% Trycol 5941 in the spray solutions. Wheat plants (variety Yuma) were grown from seed in a greenhouse in 50% mineral soil/50% soil-less Metro mix until the first leaf was fully emerged, with 7-10 seedlings per pot. These plants were inoculated with an aqueous spore suspension of Septoria tritici either prior to or after fungicide treatments. After inoculation the plants were kept in 100% relative humidity (one day in a dark dew chamber followed by two to three days in a lighted dew chamber at 20° C.) to permit spores to germinate and infect the leaf. The plants were then transferred to a greenhouse set at 20° C. for disease to develop. When disease symptoms were fully expressed on the l^st leaves of untreated plants, infection levels were assessed on a scale of 0 to 100 percent disease severity. Percent disease control was calculated using the ratio of disease severity on treated plants relative to untreated plants. Evaluation of Fungicidal Activity: Tomato Early Blight (Alternaria solani; Bayer Code […]) Tomato plants (variety Outdoor girl) were propagated in soil-less Metro mix, with each pot having one plant, and used when 12 to 14 days old. Test plants were inoculated with an aqueous spore suspension of Alternaria solani 24 hr after fungicide treatments. After inoculation the plants were kept in 100% relative humidity (one day in a dark dew chamber followed by two to three days in a lighted dew chamber at 20° C.) to permit spores to germinate and infect the leaf. The plants were then transferred to a growth room at 22° C. for disease to develop. Fungicide formulation, application and disease assessment on the sprayed leaves followed the procedures as described in the Example A.

Venturia inaequalis = assay: Apple scab (VENTIN) disease control; type: in vivo; conditions: 1 Day Protectant, 100 ppm
Protocol: Technical grades of materials were dissolved in acetone, which were then mixed with nine volumes of water containing 110 ppm Triton X-100. The fungicide solutions were applied onto wheat seedlings using an automated booth sprayer to run-off. All sprayed plants were allowed to air dry prior to further handling. All fungicides were evaluated using the aforementioned method for their activity vs. all target diseases. Wheat leaf blotch and brown rust activity were also evaluated using track spray applications, in which case the fungicides were formulated as EC formulations, containing 0.1% Trycol 5941 in the spray solutions. Wheat plants (variety Yuma) were grown from seed in a greenhouse in 50% mineral soil/50% soil-less Metro mix until the first leaf was fully emerged, with 7-10 seedlings per pot. These plants were inoculated with an aqueous spore suspension of Septoria tritici either prior to or after fungicide treatments. After inoculation the plants were kept in 100% relative humidity (one day in a dark dew chamber followed by two to three days in a lighted dew chamber at 20° C.) to permit spores to germinate and infect the leaf. The plants were then transferred to a greenhouse set at 20° C. for disease to develop. When disease symptoms were fully expressed on the l^st leaves of untreated plants, infection levels were assessed on a scale of 0 to 100 percent disease severity. Percent disease control was calculated using the ratio of disease severity on treated plants relative to untreated plants. Evaluation of Fungicidal Activity: Apple Scab (Venturia inaequalis; Bayer code […]) Apple seedlings (variety McIntosh) were grown in soil-less Metro mix, with one plant per pot. Seedlings with two expanding young leaves at the top (older leaves at bottom of the plants were trimmed) were used in the test. Plants were inoculated with a spore suspension of Venturia inaequalis 24 hr after fungicide treatment and kept in a 22° C. dew chamber with 100% RH for 48 hr, and then moved to a greenhouse set at 20° C. for disease to develop. Fungicide formulation, application and disease assessment on the sprayed leaves followed the procedures as described in the Example A.

Phakopsora pachyrhizi = assay: Asian soybean rust (PHAKPA) disease control; type: in vivo; conditions: 25 ppm; for PHAKPA 1DP disease control rating: 1 Day Protectant; for PHAKPA 3DC disease control rating: 3 Day Curative
Protocol: Evaluation of Fungicidal Activity: Asian Soybean Rust (Phakopsora pachyrhizi; Bayer Code PHAKPA)
Technical grades of materials were dissolved in acetone, which were then mixed with nine volumes of water containing 0.011% Tween 20. The fungicide solutions were applied onto soybean seedlings using an automated booth sprayer to run-off. All sprayed plants were allowed to air dry prior to further handling.
Soybean plants (variety Williams 82) were grown in soil-less Metro mix, with one plant per pot. Two weeks old seedlings were used for testing. Plants were inoculated either 3 days prior to or 1 day after fungicide treatments. Plants were incubated for 24 h in a dark dew room at 22° C. and 100% RH then transferred to a growth room at 23° C. for disease to develop. Disease severity was assessed on the sprayed leaves.

Row | SMILES | pest or weed control at 100 ppm (Alternaria solani) [%] | melting point [°C] | VENTIN disease control rating (Venturia inaequalis) | PHAKPA 1DP disease control rating (Phakopsora pachyrhizi) | PHAKPA 3DC disease control rating (Phakopsora pachyrhizi)
1 | CCCC[C@H]1[C@H](C)OC(=O)[C@@H](NC(=O)c2nccc(OC)c2OCOC(C)=O)CCC[C@@H]1Oc1ccccc1 [Compound 33] | > 70 | – | – | – | –
2 | CCCC[C@H]1[C@H](C)OC(=O)[C@@H](NC(=O)c2nccc(OC)c2OCOC(C)=O)CCC[C@@H]1OCC1CC1 [Compound 73] | < 70 | – | – | – | –
3 | CCCO[C@H]1CCC[C@H](NC(=O)c2nccc(OC)c2OC(C)=O)C(=O)O[C@@H](C)[C@@H]1CCC(C)C [Compound 74, 2-(((3S,7S,8S,9S)-8-isopentyl-9-methyl-2-oxo-7-propoxyoxonan-3-yl)carbamoyl)-4-methoxypyridin-3-yl acetate] | > 70 | 46 to 50 | A (>70) | A (>70) | B (≦70)
4 | CCCO[C@H]1CCC[C@H](NC(=O)c2nccc(OC)c2OC(C)=O)C(=O)O[C@@H](C)[C@@H]1Cc1ccccc1 [Compound 70] | > 70 | 56 to 61 | A (>70) | A (>70) | B (≦70)
5 | COc1ccnc(C(=O)N[C@H]2CCC[C@H](Oc3ccccc3)[C@@H](CCC(C)C)[C@H](C)OC2=O)c1OCOC(C)=O [Compound 40] | > 70 | 47 to 51 | A (>70) | A (>70) | B (≦70)
6 | COc1ccnc(C(=O)N[C@H]2CCC[C@H](Oc3ccccc3)[C@@H](CCC(C)C)[C@H](C)OC2=O)c1OC(C)=O [Compound 36] | > 70 | – | B (≦70) | A (>70) | B (≦70)
7 | COc1ccnc(C(=O)N[C@H]2CCC[C@H](OCC3CC3)[C@@H](Cc3ccc(F)cc3)[C@H](C)OC2=O)c1OCOC(C)=O [Compound 61] | < 70 | – | – | – | –
8 | CCCO[C@H]1CCC[C@H](NC(=O)c2nccc(OC)c2OCOC(C)=O)C(=O)O[C@@H](C)[C@@H]1CCC(C)C [Compound 25, ((2-(((3S,7S,8S,9S)-8-isopentyl-9-methyl-2-oxo-7-propoxyoxonan-3-yl)carbamoyl)-4-methoxypyridin-3-yl)oxy)methyl acetate] | > 70 | – | A (>70) | A (>70) | B (≦70)
